pIC50: −log10 of the molar value.
Tests used:
9L cells = experiment: MTT cytotoxicity assay, 9L cells; format: cell-based; settings: 72 hours, read-out: Inhibitory concentration 50% (IC50)
Protocol: (§1) FIGS. 1A-1B are graphs that show an anti-tumor effect of nifuroxazide. (FIG. 1A) Cells were treated with indicated concentration of nifuroxazide for 72 hours. Cytotoxicity was measured by using MTT assay. (FIG. 1B) Subcutaneously U87 tumor bearing mice were peritoneally injected with indicated doses of nifuroxazide. Tumor size was measured using calipers at day 7 post nifuroxazide treatment.
(§2) In this example, the antitumor effect of nifuroxazide is evaluated in different tumor cells. Cells were treated with nifuroxazide for 72 hours (FIG. 1A). […] To verify the anti-tumor efficacy of nifuroxazide in vivo, animals with subcutaneous U87 tumor implants were injected in the peritoneum with vehicle, 1 mg/kg nifuroxazide and 50 mg/kg nifuroxazide. […] Tumor volume was reduced around 25% and 60% after 7 days treatment with 1 mg/kg nifuroxazide and 50 mg/kg nifuroxazide respectively (FIG. 1B).
(§3) Cells were seeded in a 96-well plate at a density of 1×104 (U87). After overnight incubation, cells were treated with only vehicle or indicated MOI of virus or indicated concentration of drugs or reagents. After 2 to 3 days of treatment cell viability was measured by MTT assay (Sigma, Canada) according to the manufacturer's instruction. […] After overnight incubation with lysis buffer, cell viability was measured at 595 nm using a plate reader (Envision 2103 Multilabel reader, Perkin Elmer).

[1] = test system: oHSV-1 (HrR3) in U87 tumors; experiment: oHSV-1 amplification in subcutaneous U87 tumors in vivo (viral DNA qPCR, immunohistochemistry); set-up: species or system mice
From the text: FIGS. 6A and 6B show results of in vivo dose dependent HrR3 replication augmentation by nifuroxazide. Subcutaneously U87 tumor bearing mice were intratumorally injected with single dose of HrR3 virus (n=2; […]) or peritoneally injected indicated concentration of nifuroxazide or both combination. Tumors were harvested at day 10 post treatment (FIG. 6A) Total genomic DNA was extracted from the harvested tumors. Viral DNA particles (ICP27) were detected by qPCR and normalized to β-actin. (FIG. 6B) ICP4 and STAT1 expression were determined by immunohistochemistry assay on harvested tumor tissues. Stained sections were then imaged using confocal microscopy.
In this example, oHSV-1 replication augmentation effect was evaluated in vivo. Subcutaneously implanted U87 tumors were treated with either HrR3 alone or in combination with 50 mg/kg nifuroxazide or 100 mg/kg nifuroxazide. Dose dependent oHSV-1 amplification was determined by measuring viral DNA by qPCR in tumor mass. oHSV-1 augmentation was observed 1.6 fold and 2.2 fold by 50 mg/kg nifuroxazide 100 mg/kg nifuroxazide respectively (FIG. 6A).

LnCap cells = experiment: MTT cytotoxicity assay, LnCap cells; format: cell-based; settings: Homo sapiens, 72 hours, read-out: Inhibitory concentration 50% (IC50)
Protocol: as §1, §2, §3

subcutaneous U87 tumor = experiment: Subcutaneous U87 tumor bearing mice, tumor size after nifuroxazide; format: in vivo; settings: injected in the peritoneum, after 7 days treatment
Protocol: as §1, §2

[2] = test system: oHSV-1 (HrR3) in U87 cells; experiment: oHSV-1 (HrR3) replication in U87 cells, titrated in vero cells; format: cell-based, HSV-1; settings: HrR3 MOI-0.1, 48 hours
Protocol: FIGS. 2A-2B contain charts that show the effect of nifuroxazide on replication of oHSV-1. (FIG. 2A) Indicated cells were infected with HrR3 viruses at MOI-0.1. Viruses were harvested at 48 hours post-infected and titrated in vero cells. Data are presented as mean SD, *P<0.05 vs corresponding vehicle treatment. (FIG. 2B) U87 or glio cells were treated with HrR3 at a MOI of 1 and indicated concentration of nifuroxazide for 48 hours. Total DNA was extracted and subjected to qPCR to detect HSV-1 using ICP27 primer. nifuroxazide mediated oHSV-1% increase was represented in the figure.
In this example, the effect of nifuroxazide on oHSV-1 anti-tumor efficacy was evaluated. oHSV-1 infected treated glioma cells were incubated with low concentration of nifuroxazide. Replication increased 27- and 40-fold with 0.5 μM nifuroxazide and 10 μM nifuroxazide treated U87 cells respectively. Similarly, virus replication increased 0.8- and 4.7-fold virus in 9L cells treated with 0.5 μM nifuroxazide and 10 μM nifuroxazide respectively (FIG. 2A).

O=C(N/N=C/c1ccc([N+](=O)[O-])o1)c1ccc(O)cc1 [nifuroxazide, Benzoic acid, 4-hydroxy-, [(5-nitro-2-furanyl)metylene]hydrazide]
pIC50 (9L cells): ~4.57
oHSV-1 augmentation (viral DNA by qPCR in tumor mass) ([1]; 50 mg/kg nifuroxazide with HrR3, day 10): 1.6 fold
oHSV-1 augmentation (viral DNA by qPCR in tumor mass) ([1]; 100 mg/kg nifuroxazide with HrR3, day 10): 2.2 fold
oHSV-1 amplification by immunohistochemistry assay ([1]; harvested tumor tissues): oHSV-1 amplification was also confirmed
pIC50 (LnCap cells): ~5.30
Tumor volume was reduced (subcutaneous U87 tumor; 1 mg/kg nifuroxazide): around 25%
Tumor volume was reduced (subcutaneous U87 tumor; 50 mg/kg nifuroxazide): ~60%
Replication increased ([2]; 0.5 μM nifuroxazide): 27 fold
Replication increased ([2]; 10 μM nifuroxazide): 40 fold

— US20190307820A1, “COMPOSITIONS AND METHODS OF USING STAT1/3 INHIBITORS WITH ONCOLYTIC HERPES VIRUS” (priority 2016, published 2019)
